One test addresses T1, human NK2 receptor (Homo sapiens, UniProt P21452).
T1 sequence (P21452 1-398): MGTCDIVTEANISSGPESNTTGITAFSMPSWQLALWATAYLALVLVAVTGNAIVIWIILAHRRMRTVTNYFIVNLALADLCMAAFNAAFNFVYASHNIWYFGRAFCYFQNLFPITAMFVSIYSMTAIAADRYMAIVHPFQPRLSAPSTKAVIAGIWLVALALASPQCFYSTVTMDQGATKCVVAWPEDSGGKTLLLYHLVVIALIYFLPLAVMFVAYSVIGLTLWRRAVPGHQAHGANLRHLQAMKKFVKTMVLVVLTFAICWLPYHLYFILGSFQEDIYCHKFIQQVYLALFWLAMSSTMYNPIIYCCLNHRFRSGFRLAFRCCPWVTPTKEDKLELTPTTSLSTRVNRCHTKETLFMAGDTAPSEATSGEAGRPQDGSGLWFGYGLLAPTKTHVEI

The target in a further test is NK1 receptor (Oryctolagus cuniculus, UniProt G1SEI7). The experiment in a line: Rabbit Pulmonary Artery: NK1 in vitro functional assay (Test C). Type of test: cell-based. The conditions noted are these: -log molar KB against agonist ASMSP. The protocol:
Rabbit Pulmonary Artery: NK1 in vitro functional assay (Test C)
Male New Zealand white rabbits are killed by lethal injection (Nembutal, 60 mg/kg into a cannulated ear vein). Heparin, 0.0025 ml/kg of a 1000 U/ml solution, is injected into the ear vein prior to nembutal in order to decrease blood coagulation. The left and right branches of the pulmonary artery are isolated from the rest of the lung tissue and cut in half to provide four ring segments from each animal. […] Changes in tension are measured on a Grass polygraph via Grass FT-03 force transducers. […]
Potencies of the compounds are determined by calculating the apparent dissociation constants (KB) for each concentration tested using the standard equation: KB = [antagonist]/(dose ratio - 1) [formula] where dose ratio = antilog[(agonist-log molar EC50 without compound) - (agonist-log molar EC50 with compound)]. The KB values are converted to the negative logarithms and expressed as -log molar KB (i.e. pKB). […] The EC50 values are converted to negative logarithms and expressed as -log molar EC50. Maximum relaxation responses to ASMSP are determined by expressing the maximum response to the agonist as a percentage of the relaxation caused by papaverine.

In a further test the target is T2, human NK1 receptor (Homo sapiens, UniProt P25103).
T2 construct: expressed in transfected cells; host or cells: Mouse Erythroleukemia (MEL) cells
T2 sequence (P25103 whole entry): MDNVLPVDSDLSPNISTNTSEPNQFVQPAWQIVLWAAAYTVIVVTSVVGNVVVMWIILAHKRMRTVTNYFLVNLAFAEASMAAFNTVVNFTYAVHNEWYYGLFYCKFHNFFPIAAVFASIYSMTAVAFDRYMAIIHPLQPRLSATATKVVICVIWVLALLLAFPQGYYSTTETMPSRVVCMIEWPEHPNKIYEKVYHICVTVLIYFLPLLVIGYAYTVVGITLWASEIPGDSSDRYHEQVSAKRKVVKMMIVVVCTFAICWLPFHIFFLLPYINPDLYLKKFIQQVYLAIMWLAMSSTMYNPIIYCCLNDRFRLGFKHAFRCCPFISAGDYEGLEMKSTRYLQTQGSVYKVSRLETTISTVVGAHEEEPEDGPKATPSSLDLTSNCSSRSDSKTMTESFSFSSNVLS
The experiment in a line: SP Receptor Binding Assay (Test A). The conditions noted are these: binding of SP at human NK1 receptor expressed in MEL cells. The text has this:
SP Receptor Binding Assay (Test A)
The human NK1 receptor was isolated and characterized as described in: B. Hopkins, et al. "Isolation and characterization of the human lung NK1 receptor cDNA" Biochem. Biophys. Res. Comm., 1991, 180, 1110-1117; and the NK1 receptor was expressed in Mouse Erythroleukemia (MEL) cells using a procedure similar to that described in Test B below.

In a further test the target is T3, NK2 (Cavia porcellus, UniProt Q64077).
T3 construct: The trachea are removed, trimmed of excess tissue (including removal of epithelium) and cut in spiral fashion; from tissue; host or cells: guinea pig trachea strips
T3 sequence (Q64077 1-402): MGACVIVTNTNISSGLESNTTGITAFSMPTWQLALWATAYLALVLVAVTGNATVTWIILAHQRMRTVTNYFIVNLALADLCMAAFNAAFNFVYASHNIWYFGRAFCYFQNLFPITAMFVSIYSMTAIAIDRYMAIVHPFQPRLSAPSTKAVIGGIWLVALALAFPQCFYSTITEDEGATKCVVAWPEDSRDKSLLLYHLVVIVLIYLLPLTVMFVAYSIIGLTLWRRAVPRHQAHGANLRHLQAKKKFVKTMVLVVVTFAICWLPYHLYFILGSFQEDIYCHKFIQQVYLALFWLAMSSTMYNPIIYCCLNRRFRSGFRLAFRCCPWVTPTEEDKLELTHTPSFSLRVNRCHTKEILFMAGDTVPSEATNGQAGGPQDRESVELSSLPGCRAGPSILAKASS
The experiment in a line: Guinea Pig Trachea Assay: NK2 in vitro functional assay (Test D). It counts as cell-based. The conditions noted are these: -log molar KB against agonist BANK. As for the experimental part: Guinea Pig Trachea Assay: NK2 in vitro functional assay (Test D)
Male guinea pigs are killed by a sharp blow to the back of the head followed by exsanguination. The trachea are removed, trimmed of excess tissue (including removal of epithelium) and cut in spiral fashion. Each longitudinally cut tracheal segment is suspended as a strip in a water-jacketed (37.5°C) tissue bath containing a physiological salt solution of the following composition (mM): NaCl, 119; KCl 4.6; CaCl2, 1.8; MgCl2, 0.5; NaH2PO4, 1; NaHCO3, 25; glucose, 11; and indomethacin, 0.005 (to inhibit cyclooxygenase); gassed continuously with 95% O2-%5 CO2. […] Contractile responses are measured on a Grass polygraph via Grass FT-03 force transducers. […]
Potencies of the compounds are evaluated by calculating apparent dissociation constants (KB) for each concentration tested using the standard equation: KB = [antagonist]/(dose ratio-1) [formula] where dose ratio = antilog[(agonist -log molar EC50 without compound) - (agonist-log molar EC50 with compound)]. The KB values are converted to the negative logarithms and expressed as -log molar KB (i.e. pKB). […] The EC50 values are converted to the negative logarithms and expressed as -log molar EC50. Maximum contractile responses to BANK are determined by expressing the maximum response to BANK as a percentage of the initial contraction caused by capasacin.

Chain of NK1 receptor (G1SEI7 1-407): as the sequence (P25103 whole entry) above, with S12F, N189D, P369A, D371E, T376N, C386G, D391N, S402Y, V405M counted along it

The Ki is the equilibrium dissociation constant of an inhibitor or competing ligand from its target. A word on the pKB: it is −log10 of the KB, conventionally taken in molar units. A higher pKB goes with a small KB. In the case of `O=C(CC(CCN1CCC(O)(c2ccccc2)CC1)c1ccc(Cl)c(Cl)c1)NCc1ccccc1` (stereo not shown) [Example 1, N-Benzyl-5-(4-hydroxy-4-phenylpiperidino)-3-(3,4-dichlorophenyl)pentanamide], the Ki at human NK2 receptor is 0.015 µM; on human NK1 receptor, 0.03 µM. For the same compound, the negative logarithm of the KB (pKB) at NK1 receptor turned out to be 5.41. This compound gave a Kb at NK2 of 0.794 µM.
